Measured values from patent publication US20070244449A1, “System and method for the prevention of bacterial and fungal infections including Urinary Tract Infections (UTI) using N-halogenated amino acids” (Novacal Pharmaceuticals, Inc., priority 2005, published 2007).

How the values were obtained:
[1] = tested on: E. coli and Pr. mirabilis; test: Treated biofilm-bearing catheter pieces: re-culture (OD600) and visual examination; format: cell-based, Escherichia coli; Proteus mirabilis
Protocol: In order to measure the amount of live bacteria left on the pieces of catheter following treatment, the biofilm-bearing pieces of catheter were transferred into tubes containing fresh growth medium. After allowing growth in a shaker at 37° C. for 4 hours, Optical Density (OD) was read at 600 nm.
This was also shown by very low optical denisty readings (average of 0.057 OD600 units, individual data not listed) following the attempt to re-culture the bacteria from treated catheters.

[2] = tested on: urease positive Escherichia coli ATCC 25922; test: Biofilm prevention in model urinary catheter flow system; format: cell-based
Protocol: Test Articles Used Were: • Sterile saline • White vinegar at 1:3 dilution with distilled water (filter sterilized). • Neomycin Prescription: 1 ml into 1000 ml of sterile saline • N,N-dichloro 2,2-dimethyl taurine, 40 mM, pH 4, 0.9% by weight NaCl
Day 0: The test system, as described in detail above, utilized size 14 Foley catheters, cut and installed into a pre-sterilized flow system using aseptic techniques. Sterile medium was supplied to the system via a flow-break, to prevent back-growth into the medium reservoir. The entire system was placed into a 37° C. incubator. After conditioning the system with artificial urine medium for 30 minutes, each catheter was treated with a disinfectant. 20.0 ml of each treatment solution was loaded into 30 ml syringes and connected to a syringe pump. Sterile sections of tubing were attached from the syringe to the valve furthest from the flow break (bag end of the catheter). This end is designated as FRONT for sampling purposes. The pump was turned on and the treatments were introduced at 2.0 ml/min for 10 minutes through the catheters. Excess medium and treatment solution was captured in a waste container. After 10 minutes, the syringe pump was turned off and the solutions were left stationary in the catheters for 30 minutes. The solutions were then withdrawn back through the catheter into the syringe. The catheters were then rinsed with sterile medium for 30 minutes.
On Day 0 only: An inoculum from an overnight culture of urease positive Escherichia coli ATCC 25922 grown in artificial urine medium at 37° C. was introduced into the system via the valve closest to the flow break (bladder side of catheter). Each inoculum was tested for confirmation of urease production. After inoculation, the system remained under static conditions (no flow) for two hours, to allow for bacterial attachment to the catheters. Flow of artificial urine medium was then initiated and maintained at a rate of 0.75 ml/min.
(§1) Days 1, 3 and 5: For viable cell counts, a 3.0 centimeter section of tubing was removed and scraped with a sterile stainless steel rod (using aseptic technique) into a tube containing 10.0 ml of sterile PBS. The tubes were then sonicated for two minutes and the suspension was vortexed for one minute. The number of viable (culturable) bacteria was enumerated by serial dilution in PBS and plate counts using the spread-plate technique. Results are expressed as CFU/cm^2 and were calculated as described in Phase One.
Days 1 and 3: After sampling, the catheters were disinfected and rinsed with sterile medium as described above.
Days 2 and 4: the catheters were disinfected and rinsed with sterile medium as described above. No samples were taken.
Day 5: Samples were taken for imaging and both ends of the catheter were sampled for viable cell count data.

[3] = tested on: Proteus mirabilis ATCC 29245; test: Destruction of 48 h biofilm on 1-cm Foley catheter pieces, plate count; format: cell-based; settings: 33 mM, 0.9% saline, pH 3.5
Protocol: (§2) We have devised a dynamic in vitro model using traditional microbiological methods to assess the antimicrobial efficacy of 33 mM N, N-dichloro 2,2-dimethly taurine in 0.9% saline at pH 3.5, as compared to physiological saline in disinfecting intra-luminal and extra-luminal indwelling Foley catheter.
(§3) Foley Catheter, manufactured by BARD • N,N-dichloro 2,2-dimethyl taurine (33 mM) in 0.9% saline pH 3.5 • Escherichia coli ATCC 25922 • Proteus mirabilis ATCC 29245
(§4) Neutralizer Broth containing: A broth containing dextrose, lecithin, sodium thiosulfate, pancreatic digest of casein, Tween® 80, yeast extract, sodium bisulfate, sodium thioglycollate, monopotassium phosphate, and bromcresol purple.
(§5) The ability of N,N-dichloro 2,2-dimethyl taurine to destroy biofilm formation was evaluated as follows. First, biofilm was established on 1-cm-long pieces of catheter for 48 hours in nutrient broth in the presence of either Proteus mirabilis or Escherichia coli. Subsequently, the biofilm-bearing pieces of catheter were exposed to 33 mM N,N-dichloro 2,2-dimethyl taurine in 0.9% saline at pH 3.5 over various periods of time. After the exposure, the pieces of catheter were transferred into 1 mL of neutralizer broth to stop the reaction. 0.1 mL (10%) of the neutralizer broth was then plated out onto nutrient agar and the number of colonies was counted. The CFU (Colony Forming Unit) values obtained were multiplied by 10 to obtain the actual CFU/mL values per treated sample.

[4] = tested on: Escherichia coli ATCC 25922; test: as above; format: cell-based; settings: 33 mM, 0.9% saline, pH 3.5
Protocol: as §2, §3, §4, §5

[5] = tested on: bacteria on Foley catheter removed from a patient; test: Ex-vivo treatment of a patient catheter, viable plate counts; format: cell-based; settings: 40 mM
Protocol: Test Articles Used Were: • Sterile phosphate-buffered saline (PBS) • N,N-dichloro 2,2-dimethyl taurine, 40 mM, pH 4, 0.9% by weight NaCl
A Foley catheter was removed from a patient by hospital personnel and placed in a sterile bag. In the Bozeman Deaconess Hospital (BDH) lab, the outside of the catheter was wiped down with 70% ethanol. Then the catheter was aseptically cut into 3 catheter portions (bag-end, middle and patient-end). Each portion was cut into 3.0 cm long sections using a ruler and razor blades.
Three of the sections (one bag-end, one middle and one patient-end) designated as control were placed into sterile PBS. Three of the sections (one bag-end, one middle and one patient-end) were placed in 40 mM N,N-dichloro 2,2-dimethyl taurine. All catheter sections were treated for 30 minutes individually in sterile glass tubes, each with sufficient solution to be immersed completely. After treatment, each 3 cm section was removed from the treatment tubes and the PBS control tubes and placed into a second glass tube containing sterile PBS for a 2 minute rinse in order to remove the treatment solution. The section was then removed from the tube and aseptically cut into 1.0 cm and 2.0 cm pieces. The 2.0 cm piece was placed in a tube containing 10 ml of sterile PBS, vortexed, sonicated and diluted for viable plate counts. The number of viable (culturable) bacteria was enumerated by serial dilution in PBS and plate counts using the spread-plate technique. Samples were plated on blood agar plates. Results will be expressed as colony-forming units/cm^2, CFU/cm^2 (calculated as 2.0 cm length×0.25 cm (radius)×3.14 (pi)=1.57 cm^2). The 1.0 cm piece was placed in 4% formaldehyde solution.

[6] = tested on: urease positive Escherichia coli ATCC 25922; test: Biofilm eradication in model urinary catheter flow system; format: cell-based; settings: for Average Log CFU/cm^2 on catheter section after treatment, average 3 pieces / Average Log CFU/cm^2 on catheter section after treatment, end / Average Log CFU/cm^2 on catheter section after treatment, front / Average Log CFU/cm^2 on catheter section after treatment, middle / Log reduction: pH 4, 0.9% NaCl; for Average Log CFU/cm^2 on catheter section after treatment, average 3 pieces / Average Log CFU/cm^2 on catheter section after treatment, end / Average Log CFU/cm^2 on catheter section after treatment, front / Average Log CFU/cm^2 on catheter section after treatment, middle: 3-day biofilm, 10 min flow + 30 min stationary; for Log reduction: versus PBS or saline
Protocol: A test system was established which utilized size 14 Foley catheters (supplied by NovaCal), which were cut and installed into a pre-sterilized flow system (FIG. 4) using aseptic techniques. The system consists of five parallel channels, one channel per catheter. Sterile medium was supplied to the system via a flow-break, to prevent back-growth into the medium reservoir. The entire system was placed in a 37° C. incubator. After conditioning the system with artificial urine medium for 30 minutes, 2.0 ml inoculum from an overnight culture of urease positive Escherichia coli ATCC 25922 grown in artificial urine medium at 37° C. was introduced into the system via the valve closest to the flow break (bladder side of catheter). Each inoculum was tested to confirm urease production. After inoculation, the system remained under static conditions (no flow) for two hours, to allow for bacterial attachment to the catheters. Flow of artificial urine medium was then initiated and maintained at a rate of 0.75 ml/min for 3 days.
Test Articles Used Were: • Sterile saline • N,N-dichloro 2,2-dimethyl taurine, 4 mM, pH 4, 0.9% by weight NaCl • N,N-dichloro 2,2-dimethyl taurine, 40 mM, pH 4, 0.9% by weight NaCl
20 ml of each treatment solution N,N-dichloro 2,2-dimethyl taurine and sterile control solution were loaded into 30 ml syringes and connected to a syringe pump. Sterile sections of tubing were attached from the syringe to the valve furthest from the flow break (bag end of the catheter). This end is designated as FRONT for sampling purposes. The pump was turned on and the treatments were introduced at 2.0 ml/min for 10 minutes through the catheters. Excess medium and treatment solution was captured in a waste container. After 10 minutes, the syringe pump was turned off and the solutions were left stationary in the catheters for 30 minutes. The solutions were then withdrawn back through the catheter into the syringe, medium flow was resumed for a 30 minute rinse time and the catheters were then sampled.
Each catheter was divided into 3 segments (front, middle, end) and each segment was subsampled. One subsample was used to determine bacterial populations by plate count, another subsample was analyzed by staining with the LIVE/DEAD® Baclight™ bacterial viability kit (L7012, Molecular Probes, Oregon, USA) using confocal laser microscopy (CSLM), the third sample was imaged using scanning electron microscopy (SEM).
as §1, with “For” for “Days 1, 3 and 5: For”, “sterile phosphate-buffered saline (PBS).” for “sterile PBS.”, “Results were” for “Results are”, “and are” for “and were”, “as follows: [formula]” for “as described in Phase One.”
The surface area of the internal lumen of the catheter section scraped was determined to be 2.826 cm^2.
Three treatment runs were performed on 3 catheters each: One treated with PBS or sterile 0.9% saline as control, one treated with 4 mM and one treated with 40 mM N,N-dichloro 2,2-dimethyl taurine. The Log (CFU/cm^2) was calculated from the average of 9 treatments, consisting of 3 treatments of 3 catheter pieces for each Test Article.

[7] = daily treatment, DCDMT 40 mM pH 4 0.9% NaCl, vinegar 1:3 in water, neomycin prescription 1 ml in 1000 ml saline
[8] = pH 4, 0.9% NaCl, 30 min immersion

## CC(C)(CS(=O)(=O)O)N(Cl)Cl [N,N-dichloro 2,2-dimethyl taurine]
[1]; 33 mM in 0.9% saline at pH 3.5
  Visual examination of biofilm on the catheter surface: subsequent removal
[1]; 33 mM, 0.9% saline, pH 3.5, 4 h growth at 37 C in fresh medium, average, individual data not listed
  optical density readings following re-culture of bacteria from treated catheters (average): 0.057 OD600 units
[2]; 40 mM, pH 4, 0.9% NaCl
  biofilm formation during the 5 day duration of the experiment: appeared to inhibit biofilm formation
[2]; [7]
  Biofilm prevention, viable cell count, Day 1: 2.6 log CFU/cm^2
  Biofilm prevention, viable cell count, Day 3: 3.2 log CFU/cm^2
  Biofilm prevention, viable cell count, Day 5 "End" (bladder end): 3.1 log CFU/cm^2
  Biofilm prevention, viable cell count, Day 5 "Front" (bag end): 3.9 log CFU/cm^2
[3]; exposure 5 min
  CFU/mL: 1210 CFU/mL
[3]; exposure 10 min
  CFU/mL: 150 CFU/mL
[3]; exposure 20 min
  CFU/mL: 150 CFU/mL
[3]; exposure 30 min
  CFU/mL: 100 CFU/mL
[3]; exposure 45 min
  CFU/mL: 20 CFU/mL
[3]; exposure 60 min
  CFU/mL: 10 CFU/mL
[3]; exposure 120 min
  CFU/mL: 260 CFU/mL
[3]; exposure <1 min
  CFU/mL: >>3000 CFU/mL
[4]; exposure 5 min
  CFU/mL: 0 CFU/mL
[4]; exposure 10 min
  CFU/mL: 0 CFU/mL
[4]; exposure 20 min
  CFU/mL: 0 CFU/mL
[4]; exposure 30 min
  CFU/mL: 0 CFU/mL
[4]; exposure 45 min
  CFU/mL: 0 CFU/mL
[4]; exposure 60 min
  CFU/mL: 0 CFU/mL
[4]; exposure 120 min
  CFU/mL: 0 CFU/mL
[4]; exposure <1 min
  CFU/mL: 0 CFU/mL
[5]; [8]
  Average Log CFU/cm^2 on catheter section after treatment, average 3 pieces: 1.2 Log CFU/cm^2
  Average Log CFU/cm^2 on catheter section after treatment, bag end: 2.1 Log CFU/cm^2
  Average Log CFU/cm^2 on catheter section after treatment, middle: 0.5 Log CFU/cm^2
  Average Log CFU/cm^2 on catheter section after treatment, patient end: 0.8 Log CFU/cm^2
[5]; compared to catheter pieces treated with sterile PBS
  Log reduction: 1.8 Log
[6]; 4 mM and 40 mM
  bacterial counts and presence of biofilm (visual interpretation from images): significantly reduced
[6]; 4 mM
  Average Log CFU/cm^2 on catheter section after treatment, average 3 pieces: 4.4 Log CFU/cm^2
  Average Log CFU/cm^2 on catheter section after treatment, end: 5.1 Log CFU/cm^2
  Average Log CFU/cm^2 on catheter section after treatment, front: 4.1 Log CFU/cm^2
  Average Log CFU/cm^2 on catheter section after treatment, middle: 3.9 Log CFU/cm^2
  Log reduction: 4.7 Log
[6]; 40 mM
  Average Log CFU/cm^2 on catheter section after treatment, average 3 pieces: 3.8 Log CFU/cm^2
  Average Log CFU/cm^2 on catheter section after treatment, end: 3.8 Log CFU/cm^2
  Average Log CFU/cm^2 on catheter section after treatment, front: 3.7 Log CFU/cm^2
  Average Log CFU/cm^2 on catheter section after treatment, middle: 3.8 Log CFU/cm^2
  Log reduction: 5.3 Log
